From patent US20260285850A1, “SUBSTITUTED OXAZOLIDINONES AND IMIDAZOLINONES AS HERBICIDES” (FMC CORPORATION, priority 2023, published 2026)

How the values were obtained:
Type in all cases: in vivo
[1] = system: ragweed (common ragweed, Ambrosia artemisiifolia); experiment: Test A preemergence soil spray, visual injury rating 0-100; details: 10 days
In short: (§1)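 Grow plants in loam soil blended with sand. Apply formulated compound (non-phytotoxic solvent, surfactant) as a directed soil spray before emergence, or to plants at the one- to two-leaf stage after emergence. Hold in greenhouse 10 days, then rate injury visually versus untreated controls on a 0-100 scale.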

soybean (Glycine max) [2] = experiment: as above; details: 10 days
In short: as §1

[3] = system: oat, wild (wild oat, Avena fatua); experiment: as above; details: 10 days
In short: as §1

corn (Zea mays) [4] = experiment: as above; details: 10 days
In short: as §1

[5] = system: blackgrass (Alopecurus myosuroides); experiment: as above; details: 10 days
In short: as §1

[6] = system: barnyardgrass (Echinochloa crus-galli); experiment: as above; details: 10 days
In short: as §1

[7] = system: wheat (Triticum aestivum); experiment: as above; details: 10 days
In short: as §1

[8] = system: palmer (palmer amaranth, palmer pigweed, Amaranthus palmeri); experiment: as above; details: 10 days
In short: as §1

[9] = system: green foxtail (Setaria viridis); experiment: as above; details: 10 days
In short: as §1

kochia (Bassia scoparia) [10] = experiment: as above; details: 10 days
In short: as §1

[11] = system: ryegrass, Italian (italian ryegrass, Lolium multiflorum); experiment: as above; details: 10 days
In short: as §1

[12] = system: barnyardgrass (Echinochloa crusgalli); experiment: Test B flooded paddy test, visual plant response rating 0-100; details: 250 g ai/ha, Flood, applied to paddy water, evaluated after 13 days
In short: (§2)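 Plants were grown to the 2-leaf stage, then pots were flooded to 3 cm above the soil and compound was applied directly to the paddy water, with that depth kept throughout.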

rice (Oryza sativa) = experiment: as above; details: 250 g ai/ha, Flood, applied to paddy water, evaluated after 13 days
In short: as §2

[13] = system: sedge, umbrella (small-flower umbrella sedge, Cyperus difformis); experiment: as above; details: 250 g ai/ha, Flood, applied to paddy water, evaluated after 13 days
In short: as §2

[14] = system: ducksalad (Heteranthera limosa); experiment: as above; details: 250 g ai/ha, Flood, applied to paddy water, evaluated after 13 days
In short: as §2

[15] = system: ragweed (common ragweed, Ambrosia artemisiifolia); experiment: Test A postemergence application, visual injury rating 0-100
In short: as §1

soybean (Glycine max) [16] = experiment: as above
In short: as §1

[17] = system: horseweed (Erigeron canadensis); experiment: as above
In short: as §1

[18] = system: oat, wild (wild oat, Avena fatua); experiment: as above
In short: as §1

corn (Zea mays) [19] = experiment: as above
In short: as §1

[20] = system: blackgrass (Alopecurus myosuroides); experiment: as above
In short: as §1

[21] = system: barnyardgrass (Echinochloa crus-galli); experiment: as above
In short: as §1

[22] = system: wheat (Triticum aestivum); experiment: as above
In short: as §1

[23] = system: palmer (palmer amaranth, palmer pigweed, Amaranthus palmeri); experiment: as above
In short: as §1

[24] = system: green foxtail (Setaria viridis); experiment: as above
In short: as §1

kochia (Bassia scoparia) [25] = experiment: as above
In short: as §1

[26] = system: ryegrass, Italian (italian ryegrass, Lolium multiflorum); experiment: as above
In short: as §1

[27] = 62 g ai/ha, 0 = no effect, 100 = complete control
[28] = 62 g ai/ha, postemergence, 10 days, 0 = no effect, 100 = complete control
[29] = Postemergence, 16 g ai/ha, greenhouse 10 days, 0 no effect, 100 complete control

CCOC(=O)C1=CCC(NC(=O)C2(C)CN(c3cc(F)cc(F)c3)C(=O)O2)C1 (centres unmarked) [Compound 112]
Ragweed plant response rating ([1]; 16 g ai/ha, 0 to 100 scale): 0
Ragweed plant response rating (0-100) [1, 27]: 0
Soybean plant response rating (soybean (Glycine max) [2]; 16 g ai/ha, 0 to 100 scale): 10
Soybean plant response rating (0-100) (soybean (Glycine max) [2]; [27]): 0
Oat, Wild plant response rating ([3]; 16 g ai/ha, 0 to 100 scale): 0
Oat, Wild plant response rating (0-100) [3, 27]: 0
Corn plant response rating (corn (Zea mays) [4]; 16 g ai/ha, 0 to 100 scale): 20
Corn plant response rating (0-100) (corn (Zea mays) [4]; [27]): 60
Blackgrass plant response rating ([5]; 16 g ai/ha, 0 to 100 scale): 0
Blackgrass plant response rating (0-100) [5, 27]: 30
Barnyardgrass plant response rating ([6]; 16 g ai/ha, 0 to 100 scale): 20
Barnyardgrass plant response rating (0-100) [6, 27]: 100
Wheat plant response rating ([7]; 16 g ai/ha, 0 to 100 scale): 40
Wheat plant response rating (0-100) [7, 27]: 70
Pigweed, Palmer plant response rating ([8]; 16 g ai/ha, 0 to 100 scale): 0
Pigweed, Palmer plant response rating (0-100) [8, 27]: 100
Foxtail, Green plant response rating ([9]; 16 g ai/ha, 0 to 100 scale): 20
Foxtail, Green plant response rating (0-100) [9, 27]: 100
Kochia plant response rating (kochia (Bassia scoparia) [10]; 16 g ai/ha, 0 to 100 scale): 0
Kochia plant response rating (0-100) (kochia (Bassia scoparia) [10]; [27]): 70
Ryegrass, Italian plant response rating ([11]; 16 g ai/ha, 0 to 100 scale): 60
Ryegrass, Italian plant response rating (0-100) [11, 27]: 80
Plant response rating, Barnyardgrass (0 to 100 scale, 0 is no effect and 100 is complete control) [12]: 80
Plant response rating, Rice (0 to 100 scale, 0 is no effect and 100 is complete control) (rice (Oryza sativa)): 85
Plant response rating, Sedge, Umbrella (0 to 100 scale, 0 is no effect and 100 is complete control) [13]: 95
Plant response rating, Ducksalad (0 to 100 scale, 0 is no effect and 100 is complete control) [14]: 95
Ragweed plant response rating (0-100) [15, 28]: 50
Ragweed plant response rating (0 to 100 scale) [15, 29]: 50
Soybean plant response rating (0-100) (soybean (Glycine max) [16]; [28]): 80
Soybean plant response rating (0 to 100 scale) (soybean (Glycine max) [16]; [29]): 60
Horseweed plant response rating (0-100) [17, 28]: 0
Horseweed plant response rating (0 to 100 scale) [17, 29]: 0
Oat, Wild plant response rating (0-100) [18, 28]: 90
Oat, Wild plant response rating (0 to 100 scale) [18, 29]: 50
Corn plant response rating (0-100) (corn (Zea mays) [19]; [28]): 100
Corn plant response rating (0 to 100 scale) (corn (Zea mays) [19]; [29]): 100
Blackgrass plant response rating (0-100) [20, 28]: 80
Blackgrass plant response rating (0 to 100 scale) [20, 29]: 70
Barnyardgrass plant response rating (0-100) [21, 28]: 100
Barnyardgrass plant response rating (0 to 100 scale) [21, 29]: 100
Wheat plant response rating (0-100) [22, 28]: 90
Wheat plant response rating (0 to 100 scale) [22, 29]: 90
Pigweed, Palmer plant response rating (0-100) [23, 28]: 80
Pigweed, Palmer plant response rating (0 to 100 scale) [23, 29]: 30
Foxtail, Green plant response rating (0-100) [24, 28]: 90
Foxtail, Green plant response rating (0 to 100 scale) [24, 29]: 90
Kochia plant response rating (0-100) (kochia (Bassia scoparia) [25]; [28]): 90
Kochia plant response rating (0 to 100 scale) (kochia (Bassia scoparia) [25]; [29]): 60
Ryegrass, Italian plant response rating (0-100) [26, 28]: 90
Ryegrass, Italian plant response rating (0 to 100 scale) [26, 29]: 60
